Data from PubChem BioAssay (NCI).
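Following 48 hours of exposure in 96-well plates, responses at five concentrations were used to interpolate endpoints linearly. At the TGI there is no net growth.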

What was measured:
Test in all cases: NCI-60 cell line screen, 48 h
K-562 leukemia = system: K-562 leukemia
MDA-MB-435 = system: MDA-MB-435
SF-268 CNS = system: SF-268 CNS
KM12 colon = system: KM12 colon
HCT-116 colon = system: HCT-116 colon
SK-MEL-5 melanoma = system: SK-MEL-5 melanoma
SW-620 colon = system: SW-620 colon
UACC-62 melanoma = system: UACC-62 melanoma
OVCAR-5 ovarian = system: OVCAR-5 ovarian
NCI-H23 lung = system: NCI-H23 lung
OVCAR-4 ovarian = system: OVCAR-4 ovarian
SN12C renal = system: SN12C renal
HOP-92 NSCLC = system: HOP-92 NSCLC
ACHN renal = system: ACHN renal
NCI/ADR-RES ovarian = system: NCI/ADR-RES ovarian
UO-31 renal = system: UO-31 renal
HS 578T breast = system: HS 578T breast
HCT-15 colon = system: HCT-15 colon
MDA-N = system: MDA-N
NCI-H522 lung = system: NCI-H522 lung
A498 renal = system: A498 renal
DU-145 prostate = system: DU-145 prostate
786-0 renal = system: 786-0 renal
OVCAR-3 ovarian = system: OVCAR-3 ovarian
NCI-H460 lung = system: NCI-H460 lung
M14 melanoma = system: M14 melanoma
HCC-2998 colon = system: HCC-2998 colon
IGROV1 ovarian = system: IGROV1 ovarian
MCF7 breast = system: MCF7 breast
LOX IMVI melanoma = system: LOX IMVI melanoma
MALME-3M melanoma = system: MALME-3M melanoma
RXF 393 renal = system: RXF 393 renal
SNB-19 CNS = system: SNB-19 CNS
A549 NSCLC = system: A549 NSCLC
EKVX NSCLC = system: EKVX NSCLC
CAKI-1 renal = system: CAKI-1 renal
SK-MEL-28 melanoma = system: SK-MEL-28 melanoma
PC-3 prostate = system: PC-3 prostate
RPMI-8226 leukemia = system: RPMI-8226 leukemia
SF-295 CNS = system: SF-295 CNS
UACC-257 melanoma = system: UACC-257 melanoma
HT29 colon = system: HT29 colon
COLO 205 colon = system: COLO 205 colon
U251 CNS = system: U251 CNS
SR leukemia = system: SR leukemia
CCRF-CEM leukemia = system: CCRF-CEM leukemia
HL-60(TB) leukemia = system: HL-60(TB) leukemia
BT-549 breast = system: BT-549 breast
MOLT-4 leukemia = system: MOLT-4 leukemia
T-47D breast = system: T-47D breast
SK-MEL-2 melanoma = system: SK-MEL-2 melanoma
MDA-MB-231 breast = system: MDA-MB-231 breast
TK-10 renal = system: TK-10 renal
HOP-62 NSCLC = system: HOP-62 NSCLC
SNB-75 CNS = system: SNB-75 CNS
SF-539 CNS = system: SF-539 CNS
NCI-H226 lung = system: NCI-H226 lung
OVCAR-8 ovarian = system: OVCAR-8 ovarian
SK-OV-3 ovarian = system: SK-OV-3 ovarian

NC1CNC(=O)c2cscc21 (configuration not stated)
TGI (K-562 leukemia): > 100 µM | TGI (MDA-MB-435): > 100 µM | TGI (SF-268 CNS): > 100 µM | TGI (KM12 colon): > 100 µM | TGI (HCT-116 colon): > 100 µM | TGI (SK-MEL-5 melanoma): > 100 µM | TGI (SW-620 colon): > 100 µM | TGI (UACC-62 melanoma): > 100 µM | TGI (OVCAR-5 ovarian): > 100 µM | TGI (NCI-H23 lung): > 100 µM | TGI (OVCAR-4 ovarian): > 100 µM | TGI (SN12C renal): > 100 µM | TGI (HOP-92 NSCLC): > 100 µM | TGI (ACHN renal): > 100 µM | TGI (NCI/ADR-RES ovarian): > 100 µM | TGI (UO-31 renal): > 100 µM | TGI (HS 578T breast): > 100 µM | TGI (HCT-15 colon): > 100 µM | TGI (MDA-N): > 100 µM | TGI (NCI-H522 lung): > 100 µM | TGI (A498 renal): > 100 µM | TGI (DU-145 prostate): > 100 µM | TGI (786-0 renal): > 100 µM | TGI (OVCAR-3 ovarian): > 100 µM | TGI (NCI-H460 lung): > 100 µM | TGI (M14 melanoma): > 100 µM | TGI (HCC-2998 colon): > 100 µM | TGI (IGROV1 ovarian): > 100 µM | TGI (MCF7 breast): > 100 µM | TGI (LOX IMVI melanoma): > 100 µM | TGI (MALME-3M melanoma): > 100 µM | TGI (RXF 393 renal): > 100 µM | TGI (SNB-19 CNS): > 100 µM | TGI (A549 NSCLC): > 100 µM | TGI (EKVX NSCLC): > 100 µM | TGI (CAKI-1 renal): > 100 µM | TGI (SK-MEL-28 melanoma): > 100 µM | TGI (PC-3 prostate): > 100 µM | TGI (RPMI-8226 leukemia): > 100 µM | TGI (SF-295 CNS): > 100 µM | TGI (UACC-257 melanoma): > 100 µM | TGI (HT29 colon): > 100 µM | TGI (COLO 205 colon): > 100 µM | TGI (U251 CNS): > 100 µM | TGI (SR leukemia): > 100 µM | TGI (CCRF-CEM leukemia): > 100 µM | TGI (HL-60(TB) leukemia): > 100 µM | TGI (BT-549 breast): > 100 µM | TGI (MOLT-4 leukemia): > 100 µM

O=[N+]([O-])/C(C(Cl)=C(Cl)Cl)=C1/OCCS1
TGI (T-47D breast): 91 µM | TGI (SK-MEL-2 melanoma): 57.2 µM | TGI (K-562 leukemia): 77.7 µM | TGI (MDA-MB-435): 47.3 µM | TGI (SF-268 CNS): 71.1 µM | TGI (KM12 colon): 94.3 µM | TGI (HCT-116 colon): 35.2 µM | TGI (SK-MEL-5 melanoma): 34 µM | TGI (MDA-MB-231 breast): 40.2 µM | TGI (UACC-62 melanoma): 61.9 µM | TGI (OVCAR-5 ovarian): 92.6 µM | TGI (NCI-H23 lung): 72.4 µM | TGI (OVCAR-4 ovarian): > 100 µM | TGI (SN12C renal): 43.8 µM | TGI (TK-10 renal): 66.4 µM | TGI (ACHN renal): 42.2 µM | TGI (NCI/ADR-RES ovarian): 33.6 µM | TGI (HOP-62 NSCLC): 40.4 µM | TGI (UO-31 renal): 40.2 µM | TGI (HS 578T breast): 87.6 µM | TGI (HCT-15 colon): 61 µM | TGI (MDA-N): > 100 µM | TGI (NCI-H522 lung): 79.7 µM | TGI (A498 renal): 36.8 µM | TGI (DU-145 prostate): > 100 µM | TGI (SNB-75 CNS): 50.6 µM | TGI (786-0 renal): 38.6 µM | TGI (OVCAR-3 ovarian): 36.8 µM | TGI (NCI-H460 lung): 71.4 µM | TGI (M14 melanoma): > 100 µM | TGI (HCC-2998 colon): > 100 µM | TGI (IGROV1 ovarian): 47.7 µM | TGI (MCF7 breast): > 100 µM | TGI (SF-539 CNS): 42.9 µM | TGI (LOX IMVI melanoma): 41.8 µM | TGI (MALME-3M melanoma): 40.8 µM | TGI (RXF 393 renal): 41.3 µM | TGI (SNB-19 CNS): > 100 µM | TGI (A549 NSCLC): 55.6 µM | TGI (EKVX NSCLC): > 100 µM | TGI (CAKI-1 renal): 72.7 µM | TGI (SK-MEL-28 melanoma): 96.5 µM | TGI (PC-3 prostate): > 100 µM | TGI (NCI-H226 lung): 56.1 µM | TGI (RPMI-8226 leukemia): 66.2 µM | TGI (SF-295 CNS): 90.5 µM | TGI (UACC-257 melanoma): 67.3 µM | TGI (HT29 colon): > 100 µM | TGI (COLO 205 colon): 36.8 µM | TGI (U251 CNS): > 100 µM | TGI (OVCAR-8 ovarian): 34.4 µM | TGI (SR leukemia): 71.5 µM | TGI (CCRF-CEM leukemia): 35.4 µM | TGI (HL-60(TB) leukemia): 37.6 µM | TGI (MOLT-4 leukemia): 41.2 µM | TGI (SK-OV-3 ovarian): > 100 µM

Cc1cccc(Nc2cn(CCOc3ccccc3)c(=O)n(CCOc3ccccc3)c2=O)c1
TGI (K-562 leukemia): > 100 µM | TGI (MDA-MB-435): > 100 µM | TGI (SF-268 CNS): > 100 µM | TGI (KM12 colon): > 100 µM | TGI (HCT-116 colon): > 100 µM | TGI (SK-MEL-5 melanoma): > 100 µM | TGI (SW-620 colon): > 100 µM | TGI (UACC-62 melanoma): > 100 µM | TGI (OVCAR-5 ovarian): > 100 µM | TGI (NCI-H23 lung): > 100 µM | TGI (OVCAR-4 ovarian): > 100 µM | TGI (SN12C renal): > 100 µM | TGI (HOP-92 NSCLC): > 100 µM | TGI (ACHN renal): > 100 µM | TGI (HOP-62 NSCLC): > 100 µM | TGI (UO-31 renal): > 100 µM | TGI (HS 578T breast): > 100 µM | TGI (HCT-15 colon): > 100 µM | TGI (MDA-N): > 100 µM | TGI (A498 renal): > 100 µM | TGI (DU-145 prostate): > 100 µM | TGI (786-0 renal): > 100 µM | TGI (OVCAR-3 ovarian): > 100 µM | TGI (NCI-H460 lung): > 100 µM | TGI (M14 melanoma): > 100 µM | TGI (HCC-2998 colon): > 100 µM | TGI (IGROV1 ovarian): > 100 µM | TGI (MCF7 breast): > 100 µM | TGI (LOX IMVI melanoma): > 100 µM | TGI (RXF 393 renal): > 100 µM | TGI (SNB-19 CNS): > 100 µM | TGI (A549 NSCLC): > 100 µM | TGI (EKVX NSCLC): 96.9 µM | TGI (CAKI-1 renal): > 100 µM | TGI (SK-MEL-28 melanoma): > 100 µM | TGI (PC-3 prostate): > 100 µM | TGI (RPMI-8226 leukemia): > 100 µM | TGI (SF-295 CNS): > 100 µM | TGI (UACC-257 melanoma): > 100 µM | TGI (COLO 205 colon): > 100 µM | TGI (U251 CNS): > 100 µM | TGI (SR leukemia): > 100 µM | TGI (CCRF-CEM leukemia): > 100 µM | TGI (MOLT-4 leukemia): > 100 µM

CC1OC(c2ccccc2)=CC(OCc2ccccc2)[C@H]1OCc1ccccc1 (some centres not stated)
TGI (T-47D breast): > 10 µM | TGI (SF-268 CNS): > 10 µM | TGI (KM12 colon): > 10 µM | TGI (SK-MEL-5 melanoma): > 10 µM | TGI (MDA-MB-231 breast): > 10 µM | TGI (SW-620 colon): > 10 µM | TGI (UACC-62 melanoma): > 10 µM | TGI (NCI-H23 lung): > 10 µM | TGI (SN12C renal): > 10 µM | TGI (TK-10 renal): > 10 µM | TGI (HOP-62 NSCLC): > 10 µM | TGI (HCT-15 colon): > 10 µM | TGI (MDA-N): > 10 µM | TGI (SNB-75 CNS): > 10 µM | TGI (786-0 renal): > 10 µM | TGI (M14 melanoma): > 10 µM | TGI (HCC-2998 colon): > 10 µM | TGI (IGROV1 ovarian): > 10 µM | TGI (MCF7 breast): > 10 µM | TGI (MALME-3M melanoma): > 10 µM | TGI (RXF 393 renal): > 10 µM | TGI (A549 NSCLC): > 10 µM | TGI (EKVX NSCLC): > 10 µM | TGI (CAKI-1 renal): > 10 µM | TGI (SK-MEL-28 melanoma): > 10 µM | TGI (PC-3 prostate): > 10 µM | TGI (RPMI-8226 leukemia): > 10 µM | TGI (SF-295 CNS): > 10 µM | TGI (OVCAR-8 ovarian): > 10 µM | TGI (SR leukemia): > 10 µM | TGI (CCRF-CEM leukemia): > 10 µM | TGI (MOLT-4 leukemia): > 10 µM | TGI (SK-OV-3 ovarian): > 10 µM
